# Molecular target: T1, p38a activated, mitogen-activated protein kinase-activated protein kinase 2 (MAPKAP-K2 or MK2) enzyme (Homo sapiens, UniProt P49137)
# T1 construct: purchased Invitrogen PV3317
# Experiment: MK2 OMNIA biochemical assay (AssayQuant continuous-read kinase assay)
# Details: [MK-2]=0.05 nM, [ATP]=100 μM, [AQT0425]=10 μM
# Description: Example 56.2. Mitogen-Activated Protein Kinase-Activated Protein Kinase 2 AssayQuant Technologies® Assay for Compound Potency Assessment (MK2 OMNIA Biochemical Assay)
# The protocol below describes a continuous-read kinase assay optimized to measure potency of compounds against p38a activated, mitogen-activated protein kinase-activated protein kinase 2 (MAPKAP-K2 or MK2) enzyme.
# A 1.25× stock solution of MK2 (PV3317, from Invitrogen) and a 5× stock solution of ATP and Sox conjugated peptide substrate, AQT0425 (CSKS-AQT0425B, from AssayQuant Technologies), were prepared in 1× kinase reaction buffer consisting of 50 mM HEPES, pH 7.5, 0.01% Brij-35, 0.55 mM EGTA, 10 mM MgCl2 and 1 mM DTT.
# 10 μL of the ATP and substrate solution mix was added to a Coming (3574) 384-well, white, non-binding surface microtiter plate containing 0.5 μL of serially diluted test compounds prepared in DMSO. The reactions were started with the addition of 40 μL of the enzyme solution and monitored every 71 seconds for 240 min at kex 360/λem 485 in a Synergy H4 plate reader from BioTek at room temperature.
# The initial linear portions of the net progress curves were fit according to a linear equation to yield the slope and percentage of inhibition (% inhibition) at each compound concentration. The net progress curves obtained during the entirety of reactions were also fit according to an ascending single-exponential equation (Eq. 1) to yield Vobs values at each compound concentration. Plots of % Inhibition versus degrader concentrations were fit according to a dose-response equation (Eq. 2) to generate IC50 and Hill slope values while plots of Vobs versus degrader concentration were fit according to Equation 3 (Eq. 3) to generate apparent Kinact values using the GraphPad PRISM software.
# where F is the fluorescence intensity from the plate reader, V0 is a constant reflecting the relationship between the instrument readout and product concentration, t is time, e is Euler's number, and Vobs is the observed inactivation rate constant.
# where % Inhibition is percentage of inhibition, IC50 is half maximal inhibitory concentration, [I] is the degraders concentration, and n is the Hill slope.
# where kobs is the observed inactivation rate constant, Kinact is the apparent inactivation rate constant, K1 is the apparent inhibition constant, and [I] is the degrader concentration.
# T1 sequence (P49137 whole entry): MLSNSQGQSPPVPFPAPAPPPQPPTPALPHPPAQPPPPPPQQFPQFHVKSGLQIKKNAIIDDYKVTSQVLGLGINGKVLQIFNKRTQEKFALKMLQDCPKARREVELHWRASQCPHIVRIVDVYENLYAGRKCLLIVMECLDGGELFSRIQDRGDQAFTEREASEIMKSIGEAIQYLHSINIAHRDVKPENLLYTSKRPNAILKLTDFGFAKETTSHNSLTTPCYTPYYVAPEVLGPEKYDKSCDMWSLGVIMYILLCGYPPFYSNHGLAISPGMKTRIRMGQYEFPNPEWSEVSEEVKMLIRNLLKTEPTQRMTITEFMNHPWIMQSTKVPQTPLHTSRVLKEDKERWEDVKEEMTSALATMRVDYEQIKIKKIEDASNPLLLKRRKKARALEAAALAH
row,SMILES,IC50 [nM]
1,"C[C@@H]1CNc2c(sc3ccc4nc(-c5cccc(C6CCN(CCN7CCN(c8ccc(C9CCC(=O)NC9=O)cc8)CC7)CC6)c5)ccc4c23)C(=O)N1 (stereo partly drawn) [Ex 18, 3-(4-(4-(2-(4-(3-((R)-10-Methyl-8-oxo-9,10,11,12-tetrahydro-8H-[1,4]diazepino[5′,6′:4,5]thieno[3,2-f]quinolin-3-yl)phenyl)piperidin-1-yl)ethyl)piperazin-1-yl)phenyl)piperidine-2,6-dione]",< 150
2,"C[C@@H]1CNc2c(sc3ccc4nc(-c5ccc(N6CCN(CCN7CCC(c8ccc(C9CCC(=O)NC9=O)cc8)CC7)CC6)cc5)ccc4c23)C(=O)N1 (stereo partly drawn) [Ex 20, 3-(4-(1-(2-(4-(4-((R)-10-Methyl-8-oxo-9,10,11,12-tetrahydro-8H-[1,4]diazepino[5′,6′:4,5]thieno[3,2-f]quinolin-3-yl)phenyl)piperazin-1-yl)ethyl)piperidin-4-yl)phenyl)piperidine-2,6-dione]",< 150
3,"C[C@@H]1CNc2c(sc3ccc4nc(-c5ccc(N6CCN(CCN7CCN(c8ccc9c(C%10CCC(=O)NC%10=O)nn(C)c9c8)CC7)CC6)cc5)ccc4c23)C(=O)N1 (stereo partly drawn) [Ex 21, 3-(1-Methyl-6-(4-(2-(4-(4-((R)-10-methyl-8-oxo-9,10,11,12-tetrahydro-8H-[1,4]diazepino[5′,6′:4,5]thieno[3,2-f]quinolin-3-yl)phenyl)piperazin-1-yl)ethyl)piperazin-1-yl)-1H-indazol-3-yl)piperidine-2,6-dione]",151 to 500
4,"C[C@@H]1CNc2c(sc3ccc4nc(-c5ccc(N6CCN(CCN7CCN(c8ccc(C9CCC(=O)NC9=O)cc8)CC7)CC6)cc5)ccc4c23)C(=O)N1 (stereo partly drawn) [Ex 22, 3-(4-(4-(2-(4-(4-((R)-10-Methyl-8-oxo-9,10,11,12-tetrahydro-8H-[1,4]diazepino[5′,6′:4,5]thieno[3,2-f]quinolin-3-yl)phenyl)piperazin-1-yl)ethyl)piperazin-1-yl)phenyl)piperidine-2,6-dione]",151 to 500
5,"C[C@@H]1CNc2c(sc3ccc4nc(-c5ccc(N6CC7CC(C6)N7CCN6CCN(c7ccc(C8CCC(=O)NC8=O)cc7)CC6)cc5)ccc4c23)C(=O)N1 (stereo partly drawn) [Ex 24, 3-(4-(4-(2-(3-(4-((R)-10-Methyl-8-oxo-9,10,11,12-tetrahydro-8H-[1,4]diazepino[5′,6′:4,5]thieno[3,2-f]quinolin-3-yl)phenyl)-3,6-diazabicyclo[3.1.1]heptan-6-yl)ethyl)piperazin-1-yl)phenyl)piperidine-2,6-dione]",< 150
6,"C[C@@H]1CNc2c(sc3ccc4nc(-c5ccc(C6CCN(CCN7CCN(c8ccc9c(C%10CCC(=O)NC%10=O)nn(C)c9c8)CC7)CC6)cc5)ccc4c23)C(=O)N1 (stereo partly drawn) [Ex 28, 3-(1-Methyl-6-(4-(2-(4-(4-((R)-10-methyl-8-oxo-9,10,11,12-tetrahydro-8H-[1,4]diazepino[5′,6′:4,5]thieno[3,2-f]quinolin-3-yl)phenyl)piperidin-1-yl)ethyl)piperazin-1-yl)-1H-indazol-3-yl)piperidine-2,6-dione]",< 150
7,"C[C@@H]1CNc2c(sc3ccc4nc(-c5ccc(C6CN(CCN7CCN(c8ccc(C9CCC(=O)NC9=O)cc8)CC7)C6)cc5)ccc4c23)C(=O)N1 (stereo partly drawn) [Ex 30, 3-(4-(4-(2-(3-(4-((R)-10-Methyl-8-oxo-9,10,11,12-tetrahydro-8H-[1,4]diazepino[5′,6′:4,5]thieno[3,2-f]quinolin-3-yl)phenyl)azetidin-1-yl)ethyl)piperazin-1-yl)phenyl)piperidine-2,6-dione]",< 150
8,"C[C@@H]1COc2c(sc3ccc4nc(-c5ccc(C6CCN(CCN7CCN(c8ccc(C9CCC(=O)NC9=O)cc8)CC7)CC6)cc5)ccc4c23)C(=O)N1 (stereo partly drawn) [Ex 32, 3-(4-(4-(2-(4-(4-((R)-10-Methyl-8-oxo-8,9,10,11-tetrahydro-[1,4]oxazepino[7′,6′:4,5]thieno[3,2-f]quinolin-3-yl)phenyl)piperidin-1-yl)ethyl)piperazin-1-yl)phenyl)piperidine-2,6-dione]",151 to 500

# Second part, the molecule after the results:
row,IC50 [nM],SMILES
1,< 150,"C[C@@H]1CNc2c(sc3ccc4nc(-c5cccc(C6CCN(CCN7CCN(c8ccc9c(C%10CCC(=O)NC%10=O)nn(C)c9c8)CC7)CC6)c5)ccc4c23)C(=O)N1 (stereo partly drawn) [Ex 19, 3-(1-Methyl-6-(4-(2-(4-(3-((R)-10-methyl-8-oxo-9,10,11,12-tetrahydro-8H-[1,4]diazepino[5′,6′:4,5]thieno[3,2-f]quinolin-3-yl)phenyl)piperidin-1-yl)ethyl)piperazin-1-yl)-1H-indazol-3-yl)piperidine-2,6-dione]"
2,< 150,"C[C@@H]1CNc2c(sc3ccc4nc(-c5ccc(N6CCN(C(=O)C(=O)N7CCN(c8ccc(C9CCC(=O)NC9=O)cc8)CC7)CC6)cc5)ccc4c23)C(=O)N1 (stereo partly drawn) [Ex 23, 3-(4-(4-(2-(4-(4-((R)-10-Methyl-8-oxo-9,10,11,12-tetrahydro-8H-[1,4]diazepino[5′,6′:4,5]thieno[3,2-f]quinolin-3-yl)phenyl)piperazin-1-yl)-2-oxoacetyl)piperazin-1-yl)phenyl)piperidine-2,6-dione]"
3,151 to 500,"C[C@@H]1COc2c(sc3ccc4nc(-c5ccc(N6CCN(CCN7CCN(c8ccc(C9CCC(=O)NC9=O)cc8)CC7)CC6)cc5)ccc4c23)C(=O)N1 (stereo partly drawn) [Ex 25, 3-(4-(4-(2-(4-(4-((R)-10-Methyl-8-oxo-8,9,10,11-tetrahydro-[1,4]oxazepino[7′,6′:4,5]thieno[3,2-f]quinolin-3-yl)phenyl)piperazin-1-yl)ethyl)piperazin-1-yl)phenyl)piperidine-2,6-dione]"
4,< 150,C[C@@H]1COc2c(sc3ccc4nc(-c5ccc(N6CCN(CCN7CCN(c8ccc9c(C%10CCC(=O)NC%10=O)nn(C)c9c8)CC7)CC6)cc5)ccc4c23)C(=O)N1 (stereo partly drawn) [Ex 26]
5,< 150,"C[C@@H]1CNc2c(sc3ccc4nc(-c5ccc(C6CCN(CCN7CCN(c8ccc(C9CCC(=O)NC9=O)cc8)CC7)CC6)cc5)ccc4c23)C(=O)N1 (stereo partly drawn) [Ex 27, 3-(4-(4-(2-(4-(4-((R)-10-Methyl-8-oxo-9,10,11,12-tetrahydro-8H-[1,4]diazepino[5′,6′:4,5]thieno[3,2-f]quinolin-3-yl)phenyl)piperidin-1-yl)ethyl)piperazin-1-yl)phenyl)piperidine-2,6-dione]"
6,< 150,"C[C@@H]1CNc2c(sc3ccc4nc(-c5ccc(C6CCN(CCN7CCC(c8ccc(C9CCC(=O)NC9=O)cc8)CC7)CC6)cc5)ccc4c23)C(=O)N1 (stereo partly drawn) [Ex 29, 3-(4-(1-(2-(4-(4-((R)-10-Methyl-8-oxo-9,10,11,12-tetrahydro-8H-[1,4]diazepino[5′,6′:4,5]thieno[3,2-f]quinolin-3-yl)phenyl)piperidin-1-yl)ethyl)piperidin-4-yl)phenyl)piperidine-2,6-dione]"
7,< 150,"C[C@@H]1CNc2c(sc3ccc4nc(-c5ccc(C6=CCN(CCN7CCN(c8ccc(C9CCC(=O)NC9=O)cc8)CC7)CC6)cc5)ccc4c23)C(=O)N1 (stereo partly drawn) [Ex 31, 3-(4-(4-(2-(4-(4-((R)-10-Methyl-8-oxo-9,10,11,12-tetrahydro-8H-[1,4]diazepino[5′,6′:4,5]thieno[3,2-f]quinolin-3-yl)phenyl)-3,6-dihydropyridin-1(2H)-yl)ethyl)piperazin-1-yl)phenyl)piperidine-2,6-dione]"
8,< 150,"C[C@@H]1COc2c(sc3ccc4nc(-c5ccc(C6CN(CCN7CCN(c8ccc(C9CCC(=O)NC9=O)cc8)CC7)C6)cc5)ccc4c23)C(=O)N1 (stereo partly drawn) [Ex 33, 3-(4-(4-(2-(3-(4-((R)-10-Methyl-8-oxo-8,9,10,11-tetrahydro-[1,4]oxazepino[7′,6′:4,5]thieno[3,2-f]quinolin-3-yl)phenyl)azetidin-1-yl)ethyl)piperazin-1-yl)phenyl)piperidine-2,6-dione]"
9,151 to 500,"C[C@@H]1CNc2c(sc3ccc4nc(-c5ccc(C6CCN(CCN7CCN(c8ccc(C9CCC(=O)NC9=O)cc8)CC7)CC6)nc5)ccc4c23)C(=O)N1 (stereo partly drawn) [Ex 34, 3-(4-(4-(2-(4-(5-((R)-10-Methyl-8-oxo-9,10,11,12-tetrahydro-8H-[1,4]diazepino[5′,6′:4,5]thieno[3,2-f]quinolin-3-yl)pyridin-2-yl)piperidin-1-yl)ethyl)piperazin-1-yl)phenyl)piperidine-2,6-dione]"
10,< 150,"C[C@@H]1CNc2c(sc3ccc4nc(-c5ccc(C6CCN(CCN7CCN(c8ccc(C9CCC(=O)NC9=O)cc8)CC7)CC6)cn5)ccc4c23)C(=O)N1 (stereo partly drawn) [Ex 35, 3-(4-(4-(2-(4-(6-((R)-10-Methyl-8-oxo-9,10,11,12-tetrahydro-8H-[1,4]diazepino[5′,6′:4,5]thieno[3,2-f]quinolin-3-yl)pyridin-3-yl)piperidin-1-yl)ethyl)piperazin-1-yl)phenyl)piperidine-2,6-dione]"
